Assay results taken from patent US11883398B2, “Dipeptidylpeptidase 4 inhibition enhances lymphocyte trafficking, improving both naturally occurring tumor immunity and immunotherapy” (INSTITUT PASTEUR, priority 2015, dated 2024).
“Also recorded” adds a separate entry of the source.

Legend:
[1] = Thioglycollate induced peritonitis; assay type: in vivo, mouse; conditions: 24 h after intraperitoneal thioglycollate, sitagliptin vs control
Procedure: WT and Dpp4^−/− mice were intraperitoneally injected with PBS or 1 μg of mCXCL10, mCXCL9 or mCCL5 (all from Peprotech). At the indicated time points, mice were sacrificed and peritoneal cells were collected in 10 mL of PBS. For thioglycollate induced peritonitis mice were intraperitoneally injected with thioglycollate 3% weight/volume, 24 hours before collection of peritoneal cells.

B16F10 cells = experiment: Model of metastatic melanoma (intravenous B16F10, lung metastatic foci); assay type: in vivo, mouse; conditions: 15 days after intravenous injection of B16F10 cells
Procedure: B16F10 and M04 (Ovalbumin-expressing B16F10 cells, gift from C. Reis e Sousa) tumor cells were cultured in DMEM (Gibco) supplemented with 10% FCS (PAA), 0.1 mM non-essential amino acids, 1 mM sodium pyruvate, 10 mM Hepes, 70 μM beta-mercaptoethanol and 23 μg/ml gentamycin (all from Gibco). CT26 colon carcinoma cells were cultured in RPMI (Gibco) supplemented as described for DMEM. Cells for injections were passaged 1-2 times after thawing, before use. WT and genetically modified mice were subcutaneously injected with 2×10^5 B16 or 5×10^5 CT26 cells in the shaved right flank. When indicated, mice received an intra-tumoral injection of 1 μg of recombinant mCXCL10, 5 μg CpG-A in DOPTAP or vehicle control. […] Tumor height and width were measured with a caliper and tumor volume was calculated (Elliptical volume=width^2×height×0.523). […] 15 days after tumor cell injection, lungs were dissected, placed in Fekete's solution and metastatic foci were counted. […]

CT26 colon carcinoma = experiment: Subcutaneous CT26 colon carcinoma tumor growth in vivo; parameters: species or system mouse
Procedure: Mice used were 7-12 weeks old. […] B16F10 and […] (Ovalbumin-expressing B16F10 cells, gift from C. Reis e Sousa) tumor cells were cultured in DMEM (Gibco) supplemented with 10% FCS (PAA), 0.1 mM non-essential amino acids, 1 mM sodium pyruvate, 10 mM Hepes, 70 μM beta-mercaptoethanol and 23 μg/ml gentamycin (all from Gibco). CT26 colon carcinoma cells were cultured in RPMI (Gibco) supplemented as described for DMEM. Cells for injections were passaged 1-2 times after thawing, before use. WT and genetically modified mice were subcutaneously injected with 2×10^5 B16 or 5×10^5 CT26 cells in the shaved right flank. […] For blocking of chemokine and chemokine receptors, WT mice were intraperitoneally injected with 100 μg of hamster a-mCXCR3 (clone CXCR3-173, BioLegend), 100 μg of hamster α-mCCR5 (clone HM-CCR5, BioLegend), 50 μg of rat anti-mCXCL10 (clone 134013, R&D systems) and 20 μg of rat-α-mCXCR4 (clone 2B11/CXCR4, BD Biosciences) or with respective isotype antibodies (hamster IgG (clone HTK888, BioLegend, used as control for mCXCR3 and mCCR5 blockage); rat IgG2a (clone 54447, R&D systems, used as control for mCXCL10 blockade) and rat IgG2b (clone A95-1, BD Biosciences, used as control for mCXCR4 blockade). […] Tumor height and width were measured with a caliper and tumor volume was calculated (Elliptical volume=width^2×height×0.523). […]

## N[C@@H](CC(=O)N1CCn2c(nnc2C(F)(F)F)C1)Cc1cc(F)c(F)cc1F [sitagliptin]
[1]
  thioglycollate-induced neutrophil, monocyte and eosinophil migration: no differences were observed
B16F10 cells
  number of lung metastases: significantly reduced the number of lung metastases
CT26 colon carcinoma; BALB/c mice, sitagliptin vs control chow
  CT26 tumor growth: marked delay of CT26 tumor growth; also recorded: delayed CT26 growth
CT26 colon carcinoma; anti-CXCR3 antibody, sitagliptin vs control
  CT26 tumor growth with CXCR3 blocking antibodies: loss of protection
